Assay results reported in patent publication US20240239802A1, “CRYSTAL FORM OF PYRROLOPYRIMIDINE COMPOUND AND PREPARATION METHOD FOR CRYSTAL FORM” (ZHEJIANG LONGCHARM BIO-TECH PHARMA. CO., LTD., priority 2021, published 2024).

What was measured:
[1] = Hygroscopicity research by dynamic vapor adsorption (DVS); type: physicochemical; details: 25° C. and 80% RH
Experimental: The vapor adsorption analysis (DVS) method of this application.
Instrument model: SMS DVS Advantage dynamic vapor adsorption instrument
Test conditions: Take a sample (10-15 mg) and place it in a DVS sample tray for testing.
The detailed DVS parameters are as follows:
Balance: dm/dt=0.01%/min (shortest: 10 min, longest: 180 min)
RH (%) test range: 0%-90%-0%
SMS DVS Advantage dynamic vapor adsorption instrument
Taking 10-15 mg of compound crystal form C of formula (I) and placing it in a DVS sample tray for testing.

[2] = Solid stability test (XRPD) under high temperature, high humidity and strong light; type: physicochemical
Experimental: According to the “Guiding Principles for Stability Testing of Raw Materials and Preparations” (Chinese Pharmacopoeia 2015 Edition Four General Rules 9001), the crystal form C of the compound of formula (I) was investigated for its stability under high temperature (60° C., open), high humidity (a. room temperature/relative humidity 92.5%, open; b. 40° C./75% relative humidity, open; c. 60° C./75% relative humidity, open) and the stability under strong light (5000 1×, airtight).
The crystal form C (15 mg) of the compound of formula (I) is weighed and placed on the bottom of the glass sample bottle to be spread into a thin layer. Samples placed under high-temperature and high-humidity conditions are sealed with aluminum foil, and small holes are formed on the aluminum foil to ensure that the samples can fully contact with the ambient air; and the sample placed under the strong illumination condition is sealed by a threaded bottle cap. Samples placed under different conditions were sampled and tested (XRPD) on the 5th day, 10th day, and 1 month. The test results were compared with the initial test results on day 0.

[3] = Competitive experiment of crystal form B and crystal form C (suspension in methyl tert-butyl ether); type: physicochemical
Experimental: Three groups of 30 mg crystal form B and 30 mg crystal form C compounds were respectively added to different 2.0 mL glass vials, and 0.6 mL methyl tert-butyl ether was added to obtain a suspension, and the suspension samples were placed in the magnetic heating stirrer was stirred at 20° C., 40° C. and 60° C. for 16 hours, the suspension was centrifuged to obtain a white solid, and the crystal form C of the compound of formula (I) was obtained by vacuum drying to constant weight.

[4] = system: human B-cell lymphoma OCI-LY10 cells; assay: OCI-LY10 SCID mouse subcutaneous xenograft tumor model; type: in vivo, SCID mice; details: for T/C / TGI: Day 20; for Tumor volume (Day 0) / Tumor volume (Day 20): Mean ± SEM
Experimental: OCI-LY10SCID mouse xenograft tumor model:
Experimental Method: Subcutaneous Xenograft Tumor Model in Mice with Human B-Cell Lymphoma
Tumor cells in the logarithmic growth phase were collected and resuspended in IMDM basal medium. Matrigel was added to adjust the concentration of cells to 4×10^7/Ml. Under sterile conditions, SCID mice were inoculate with cell suspension subcutaneously on the right back at a concentration of 4×10^6/0.1 mL/mouse. When the animal tumor reached about 131.55-227.87 mm^3, the tumor-bearing mice were divided into 5 groups according to the size of the tumor volume, with 8 […] in each group. On the day of the experiment, the animals were given corresponding drugs according to the groups.
During the experiment, the body weight and tumor size of the animals were measured 3 times a week, and the clinical symptoms of the animals were observed and recorded every day, and each administration was referred to the last weighed animal body weight.
The length (a) and width (b) of the tumor were measured with a digital vernier caliper, and tumor volume (Tumor volume, TV) was calculated according to the formula below: […]

[5] = Pharmacokinetics (intravenous) in CD-1 mice; type: in vivo; details: for AUCu: AUCu = AUC0-inf × Unbound PPB (Mouse)
Experimental: The compound of formula (I) and the reference example were mixed with vehicle 0.10 mg/mL in 10% NMP/60% PEG400/30% H2O, vortexed and sonicated to prepare a 0.1 mg/mL clear solution. Select CD-1 male mice aged 7 to 10 weeks and administer the candidate compound solution intravenously at a dose of 0.21 mg/kg.
The whole blood was collected for a certain period of time to prepare plasma, and the drug concentration was analyzed by LC-MS/MS method. Pharmacokinetic parameters were calculated by Phoenix WinNonlin software (Pharsight, USA).

[6] = Pharmacokinetics (oral administration) in CD-1 mice; type: in vivo; details: for AUCu: AUCu = AUC0-inf × Unbound PPB (Mouse)
Experimental: The compound of formula (I) and the reference example were mixed with vehicle 10% NMP/60% PEG400/30% H2O, vortexed and sonicated to prepare a 0.6 mg/mL clear solution. Male CD-1 mice aged 7 to 10 weeks were selected, and the candidate compound solution was administered orally by gavage at a dose of 3.1 mg/kg. Whole blood was collected for a certain period of time to prepare plasma, and the drug concentration was analyzed by LC-MS/MS. Pharmacokinetic parameters were calculated with Phoenix WinNonlin software (Pharsight, USA).

[7] = Pharmacokinetics (intravenous) in SD rats; type: in vivo; details: for AUCu: 0.51 / 0.49 mg/kg, AUCu = AUC0-inf × Unbound PPB (Rat in vivo test PPB)
Experimental: The compound of formula (I) and the reference example were mixed with vehicle 0.10 mg/mL in 10% NMP/60% PEG400/30% H2O, vortexed and sonicated to prepare a 0.5 mg/mL clear solution. SD rats aged 7 to 10 weeks were selected and given the candidate compound solution intravenously. Whole blood was collected for a certain period of time to prepare plasma, and the drug concentration was analyzed by LC-MS/MS. Pharmacokinetic parameters were calculated with Phoenix WinNonlin software (Pharsight, USA).

[8] = Pharmacokinetics (oral) in SD rats; type: in vivo; details: for AUCu: 1.9 / 1.8 mg/kg, AUCu = AUC0-inf × Unbound PPB (Rat in vivo test PPB)
Experimental: The compound of formula (I) and the reference example were mixed with vehicle 10% NMP/60% PEG400/30% H2O, vortexed and sonicated to prepare a 2 mg/mL clear solution. SD rats aged 7 to 10 weeks were selected, and the candidate compound solution was administered orally.
Whole blood was collected for a certain period of time to prepare plasma, and the drug concentration was analyzed by LC-MS/MS method, and the pharmacokinetic parameters were calculated by Phoenix WinNonlin software (Pharsight, USA).

Unbound PPB (Mouse) = type: in vitro ADME
[9] = Unbound PPB (Rat in vivo test PPB); type: in vitro ADME
BTK^C481S = BTK^C481S (Homo sapiens (Human), UniProt Q06187, C481S); assay: BTK enzyme activity test (33P-ATP filtration-binding); type: biochemical
Chain of BTK^C481S (Q06187 whole entry C481S): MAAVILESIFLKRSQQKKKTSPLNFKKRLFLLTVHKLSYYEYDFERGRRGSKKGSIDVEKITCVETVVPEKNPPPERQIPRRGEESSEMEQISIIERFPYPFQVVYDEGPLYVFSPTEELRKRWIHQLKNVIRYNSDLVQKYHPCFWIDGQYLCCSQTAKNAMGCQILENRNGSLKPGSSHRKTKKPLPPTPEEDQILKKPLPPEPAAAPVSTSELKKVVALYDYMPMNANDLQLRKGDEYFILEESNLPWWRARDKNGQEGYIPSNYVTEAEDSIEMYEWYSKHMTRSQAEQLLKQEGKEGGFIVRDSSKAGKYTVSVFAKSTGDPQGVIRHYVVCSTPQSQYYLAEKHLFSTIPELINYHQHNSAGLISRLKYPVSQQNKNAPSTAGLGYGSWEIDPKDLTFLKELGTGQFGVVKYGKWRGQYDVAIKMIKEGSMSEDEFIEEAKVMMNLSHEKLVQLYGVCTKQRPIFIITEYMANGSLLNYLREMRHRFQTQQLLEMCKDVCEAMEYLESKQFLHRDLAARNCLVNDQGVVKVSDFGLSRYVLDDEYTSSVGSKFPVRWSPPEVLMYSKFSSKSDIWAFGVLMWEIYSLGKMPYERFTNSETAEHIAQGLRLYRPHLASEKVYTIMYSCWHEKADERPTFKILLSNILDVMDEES
Experimental: The specific experimental process of BTK enzyme activity test is as follows:
Buffer: 20 mM hydroxyethylpiperazine ethylsulfuric acid (Hepes) (pH 7.5), 10 mM magnesium chloride, 1 mM ethylene glycol bisaminoethyl ether tetraacetic acid (EGTA), 0.02% polyoxyethylene lauryl ether (Brij35), 0.02 mg/mL BSA, 0.1 mM sodium vanadate (Na3VO4), 2 mM dithiothreitol (DTT), 1% DMSO, 200 μM adenosine triphosphate (ATP).
1. Configuring the substrate in the newly prepared reaction buffer
2. Adding the required cofactors to the above substrate solution
3. Adding the kinase BTK^C481S to the above substrate solution and mixing well
4. Adding the compound dissolved in DMSO to the kinase reaction mixture through
Echo550 (Acoustic technology; nanoliter range), and incubating at room temperature for 20 minutes
5. Adding ^33P-ATP (with a specific activity of 10 μCi/μL) into the reaction mixture to initiate the reaction
6. Incubating at room temperature for 2 hours
7. Detection of radioactivity by filtration-binding method
8. Kinase activity data represent the percentage of remaining kinase activity in the test sample compared to the vehicle (dimethyl sulfoxide) reaction.

[10] = mouse, plasma, 0.21 mg/kg, CD-1 male mice
[11] = mouse, plasma, 3.1 mg/kg, CD-1 male mice
[12] = rat, plasma, SD rats, 0.51 mg/kg (Reference Example) / 0.49 mg/kg (Compound of Formula (I))
[13] = rat, plasma, SD rats, 1.9 mg/kg (Reference Example) / 1.8 mg/kg (Compound of Formula (I))

For CO[C@@H]1C[C@@H](CO)OC[C@@H]1Nc1ncnc2[nH]cc(C(=O)c3ccc(Oc4ccccc4)cc3Cl)c12 [Form C], the Hygroscopicity classification [1] was “slightly hygroscopic (2% > ΔW % ≥ 0.2%)”, the “ΔW (hygroscopic weight gain)” value ([1]; DVS) was 0.262% and the “Crystal Form (XRPD)” value ([2]; 0 day, initial) was “Form C”. The “Crystal Form (XRPD)” value ([2]; High humidity (40° C./75% relative humidity, open), 1 month) was “Form C”, the “Crystal Form (XRPD)” value ([2]; High humidity (60° C./75% relative humidity, open), 1 month) was “Form C” and the “Crystal Form (XRPD)” value ([2]; High humidity (room temperature/relative humidity 92.5%, open), 5th day) was “Form C”. The “Crystal Form (XRPD)” value ([2]; High humidity (room temperature/relative humidity 92.5%, open), 10th day) was “Form C”, the “Crystal Form (XRPD)” value ([2]; High temperature (60° C., open), 5th day) was “Form C” and the “Crystal Form (XRPD)” value ([2]; High temperature (60° C., open), 10th day) was “Form C”. For the same molecule, the “Crystal Form (XRPD)” value ([2]; Strong light (5000 lx, airtight), 10th day) was “Form C”, the “Solid stability, conclusion” value ([2]; high temperature, high humidity and strong light conditions) was “Conclusion: The crystal form C of the compound of formula (I) has good stability under high temperature, high humidity and strong light conditions” and the “Relative stability compared with Form B, conclusion” value [3] was “Conclusion: Compared with Form B, Form C is more stable”. The T/C ([4]; 15 mg/kg PO QD × 21) was 65.50%, the TGI ([4]; 15 mg/kg PO QD × 21) was 49.61% and the “Tumor volume (Day 0)” value ([4]; 15 mg/kg PO QD × 21) was 182.02 ± 9.76 mm^3. The “Tumor volume (Day 20)” value ([4]; 15 mg/kg PO QD × 21) was 471.07 ± 16.55 mm^3, the T/C ([4]; 30 mg/kg PO QD × 21) was 45.05% and the TGI ([4]; 30 mg/kg PO QD × 21) was 71.75%. The “Tumor volume (Day 0)” value ([4]; 30 mg/kg PO QD × 21) was 180.91 ± 9.67 mm^3, the “Tumor volume (Day 20)” value ([4]; 30 mg/kg PO QD × 21) was 342.95 ± 20.06 mm^3 and the T/C ([4]; 45 mg/kg PO QD × 21) was 29.25%. The TGI ([4]; 45 mg/kg PO QD × 21) was 92.82%, the “Tumor volume (Day 0)” value ([4]; 45 mg/kg PO QD × 21) was 180.19 ± 10.07 mm^3 and the “Tumor volume (Day 20)” value ([4]; 45 mg/kg PO QD × 21) was 221.38 ± 37.11 mm^3. For the same molecule, the “Tumor inhibitory effect versus reference compound, conclusion” value ([4]; at the same dose) was “obviously better than that of reference compound” and the “Tumor growth inhibition, conclusion” value ([4]; inhibitory effect positively correlated with dose) was “significantly inhibit tumor growth”.

Work on O=C(c1ccc(Oc2ccccc2)cc1Cl)c1c[nH]c2ncnc(N[C@@H]3CC[C@@H](CO)OC3)c12 [Reference Example] yielded an AUCu ([5]; 0.21 mg/kg, CD-1 male mice) of 7.0 nM·h, an AUC(0-inf) [5, 10] of 3490 nM·h and a C0 [5, 10] of 1.04 µM. For the same molecule, the Vd [5, 10] was 0.7 L/kg, the clearance [5, 10] was 0.121 L/h/kg and the half-life [5, 10] was 4.34 h. It also gave an AUCu ([6]; 3.1 mg/kg, CD-1 male mice) of 88.2 nM·h, an AUC(0-inf) [6, 11] of 44100 nM·h and a Cmax [6, 11] of 3.83 µM. The half-life [6, 11] was 3.75 h, the AUCu ([7]; SD rats) was 1.9 nM·h and the AUC(0-inf) [7, 12] was 1920 nM·h. The C0 [7, 12] was 0.8 µM, the Vd [7, 12] was 1.57 L/kg and the clearance [7, 12] was 0.545 L/h/kg. The half-life [7, 12] was 2.02 h, the AUCu ([8]; SD rats) was 5.0 nM·h and the AUC(0-inf) [8, 13] was 5030 nM·h. The Cmax [8, 13] was 0.607 µM, the half-life [8, 13] was 2.41 h and the “Unbound PPB” value (Unbound PPB (Mouse); Table 10) was 0.2%. For the same molecule, the “Unbound PPB” value (Unbound PPB (Mouse); Table 11) was 0.2%, the “Unbound PPB” value ([9]; Table 12) was 0.1% and the “Unbound PPB” value ([9]; Table 13) was 0.1%. The T/C ([4]; 45 mg/kg PO QD × 21) was 42.45%, the TGI ([4]; 45 mg/kg PO QD × 21) was 74.47% and the “Tumor volume (Day 0)” value ([4]; 45 mg/kg PO QD × 21) was 183.86 ± 9.48 mm^3. For the same molecule, the “Tumor volume (Day 20)” value ([4]; 45 mg/kg PO QD × 21) was 330.27 ± 19.35 mm^3.

For CO[C@@H]1C[C@@H](CO)OC[C@@H]1Nc1ncnc2[nH]cc(C(=O)c3ccc(Oc4ccccc4)cc3Cl)c12 [Compound of formula (I)], the “Inhibitory effect on BTK C481S mutation, conclusion” value (BTK^C481S) was “strong inhibitory effect”, the “Free drug concentration in mouse plasma, conclusion” value [5] was “higher than that of the reference compound” and the AUCu ([5]; 0.21 mg/kg, CD-1 male mice) was 12.4 nM·h. For the same molecule, the “Free drug concentration in mouse plasma, conclusion” value [6] was “higher than that of the reference compound”, the AUCu ([6]; 3.1 mg/kg, CD-1 male mice) was 133.0 nM·h and the “Free drug concentration in rat plasma, conclusion” value [7] was “higher than that of the reference compound”. The AUCu ([7]; SD rats) was 3.4 nM·h, the “Free drug concentration in rat plasma, conclusion” value [8] was “higher than that of the reference compound” and the AUCu ([8]; SD rats) was 7.8 nM·h. The “Unbound PPB” value (Unbound PPB (Mouse); Table 10) was 0.4%, the “Unbound PPB” value (Unbound PPB (Mouse); Table 11) was 0.4% and the “Unbound PPB” value ([9]; Table 12) was 0.2%. For the same molecule, the “Unbound PPB” value ([9]; Table 13) was 0.2%.
